Source: patent US20120196853A1, “Novel Quinoline-Hepcidine Antagonists” (VIFOR (INTERNATIONAL) AG, priority 2009, published 2012)

Biological target: T1, human ferroportin (Fpn-HaloTag fusion protein) (Homo sapiens, UniProt Q9NP59)
T1 construct: expressed in transfected cells
T1 sequence (Q9NP59 1-571): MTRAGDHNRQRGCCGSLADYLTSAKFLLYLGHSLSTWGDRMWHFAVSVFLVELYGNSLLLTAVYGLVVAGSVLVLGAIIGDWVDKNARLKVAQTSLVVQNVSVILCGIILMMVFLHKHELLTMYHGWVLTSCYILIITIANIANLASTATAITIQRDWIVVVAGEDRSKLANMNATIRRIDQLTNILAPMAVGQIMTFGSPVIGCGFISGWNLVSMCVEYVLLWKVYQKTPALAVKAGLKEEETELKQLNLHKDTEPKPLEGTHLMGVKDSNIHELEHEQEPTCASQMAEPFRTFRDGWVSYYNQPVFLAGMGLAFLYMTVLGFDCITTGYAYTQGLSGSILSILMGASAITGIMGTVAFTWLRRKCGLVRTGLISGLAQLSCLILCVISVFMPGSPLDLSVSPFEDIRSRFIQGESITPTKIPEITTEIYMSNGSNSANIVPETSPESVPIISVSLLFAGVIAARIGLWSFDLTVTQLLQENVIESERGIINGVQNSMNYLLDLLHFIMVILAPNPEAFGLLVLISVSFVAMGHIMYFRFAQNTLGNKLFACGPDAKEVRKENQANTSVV
Assay: ferroportin internalization assay (inhibition of hepcidin-induced internalization of Fpn, MDCK-FPN-HaloTag cells)
Type: cell-based
Settings: for IC50: 100 nM hepcidin, overnight, dilution series 0.04 to 40 μM; for I [%] (median inhibition [%] at 10 μM substance conc.): hepcidin-induced Fpn internalization
Procedure: The hepcidin-antagonistic action of the quinoline compounds of the present invention was determined by means of the “ferroportin internalization assay” described in the following.
Organic compounds of low molecular weight which counteract the biological actions of hepcidin on its receptor, the iron exporter ferroportin (Fpn), were identified on the basis of their ability to inhibit hepcidin-induced internalization of Fpn in living cells. For this purpose, a stable cell line (Madin-Darby canine kidney, MDCK) was produced which constitutively expresses human ferroportin fused recombinantly at its C terminus with a fluorescent reporter protein (HaloTag®, Promega Corp.). The internalization of Fpn was monitored by labelling these cells with fluorescent ligands (HaloTag®-TMR, tetramethylrhodamine) which join covalently on to the HaloTag reporter gene fused with the Fpn. […] Optimized image analysis algorithms were used to ascertain the cell surface and to quantify the corresponding membrane fluorescence associated with the Fpn-HaloTag fusion protein. This assay allows a quantitative image-based analysis in order to quickly evaluate compounds which can block hepcidin-induced internalization of Fpn. This assay is a direct in vitro pendant of the in vivo action mechanism proposed for medicament candidates and is therefore suitable as an initial assay with a high throughput for identifying compounds which counteract the action of hepcidin on its receptor ferroportin.
• 7,500 cells per well (MDCK-FPN-HaloTag) were transinoculated in 50 μl DMEM medium (Dulbeccos modified Eagle medium with 10% foetal bovine serum (FBS), which contained 1% penicillin, 1% streptomycin and 450 μg/ml of G-418) in microtitre plates with 384 wells, (384 Cell carrier plates, Perkin Elmer, cat. no. 6007430), followed by incubation overnight at 37° C./5% CO2. • The volume of the medium was reduced to 10 μl, and 10 μl of 5 μM HaloTag-TMR ligands (Promega, cat. no. G 8251) were added in DMEM medium in order to stain the Fpn-HaloTag fusion protein. • 15 min incubation at 37° C./5% CO2 • The HaloTag-TMR ligand was removed and the cells were washed with fresh DMEM medium and the volume was reduced to 20 μl of DMEM medium. • 3 μl per well of a solution of the test compound (dissolved DMSO) were added ([…]). • 7 μl of […] hepcidin (Peptides International, cat. no. PLP-4392-s, 100 μM stock solution diluted in water in DMEM medium) were added per well up to a final hepcidin concentration of 100 nM. • The cells were incubated overnight at 37° C./5% CO2. • The cells were fixed by adding paraformaldehyde (PFA, Electron Microscopy Sciences, cat. no. 15710-S) directly to the cells up to a final concentration of 4%, followed by incubation at room temperature for 15-20 minutes. • The PFA solution was removed and the cells were washed with PBS (phosphate-buffered saline solution), in each case 30 μl remaining in the plate. • 20 μl of Draq5 (Biostatus, cat. no. DR 51000) were added up to a final concentration of 2.5 μM in order to stain the cell nuclei, and the plates were sealed with a foil plate seal. • The plates were analysed with the Opera Plate Imager (Opera Confocal Plate Imager, Perkin Elmer) with 7 images per well; 440 ms exposure time per image, […] focal point height.

Row | SMILES | IC50 | I [%] (median inhibition [%] at 10 μM substance conc.)
1 | COc1cc(COc2c(CN3CCOCC3)ccc3cccnc23)cc(OC)c1OC [Example 23, 7-Morpholin-4-ylmethyl-8-(3,4,5-trimethoxybenzyloxy)-quinoline] | > 100 µM | 
2 | Oc1c(C(c2ccc(Cl)cc2)N2CCOCC2)ccc2cccnc12 (stereo not shown) [Example 40, 7-[(4-Chloro-phenyl)-morpholin-4-yl-methyl]-quinolin-8-ol] | < 50 µM | 
3 | Oc1c(C(c2ccc(F)cc2)N2CCOCC2)ccc2cccnc12 (stereo not shown) [Example 28] | < 50 µM | 
4 | Oc1c(C(c2cccs2)N2CCOCC2)ccc2cccnc12 (stereo not shown) [Example 21, 7-(Morpholin-4-yl-thiophen-2-yl-methyl)-quinolin-8-ol] | < 50 µM | 
5 | Oc1c(C(c2nccn2Cc2ccccc2)N2CCOCC2)ccc2cccnc12 (stereo not shown) [Example 16] | < 50 µM | 
6 | Oc1c(C(c2ccccn2)N2CCCCC2)ccc2cccnc12 (stereo not shown) [Example 27, 7-(Piperidin-1-yl-pyridin-2-yl-methyl)-quinolin-8-ol] | < 50 µM | 
7 | Oc1c(C(c2ccncc2)N2CCOCC2)ccc2cccnc12 (stereo not shown) [Example 30, 7-(Morpholin-4-yl-pyridin-4-yl-methyl)-quinolin-8-ol] | < 50 µM | 
8 | Oc1c(C(c2ccccn2)N2CCC(c3ccccc3F)CC2)ccc2cccnc12 (stereo not shown) [Example 36, 7-{[4-(2-Fluoro-phenyl)-piperidin-1-yl]-pyridin-2-yl-methyl}-quinolin-8-ol] | < 50 µM | 
9 | Oc1c(C(c2cccs2)N2CCOCC2)cc(Cl)c2cccnc12 (stereo not shown) [Example 39, 5-Chloro-7-(morpholin-4-yl-thiophen-2-yl-methyl)-quinolin-8-ol] | < 50 µM | 
10 | O=C(Oc1c(CN2CCOCC2)cc(Cl)c2cccnc12)c1ccco1 [Example 3, Furan-2-carboxylic acid 5-chloro-7-morpholin-4-ylmethyl-quinolin-8-yl ester] | < 50 µM | <50%
11 | Oc1c(C(c2cccnc2)N2CCOCC2)ccc2cccnc12 (stereo not shown) [Example 29, 7-(Morpholin-4-yl-pyridin-3-yl-methyl)-quinolin-8-ol] | < 50 µM | 
12 | N#Cc1ccc(C(c2ccc3cccnc3c2O)N2CCOCC2)cc1 (stereo not shown) [Example 10, 4-[(8-Hydroxy-quinolin-7-yl)-morpholin-4-yl-methyl]-benzonitrile] | < 50 µM | 
13 | Oc1c(C(NCc2ccccc2)c2ccncc2)ccc2cccnc12 (stereo not shown) [Example 17, 7-(Benzylamino-pyridin-4-yl-methyl)-quinolin-8-ol] | < 50 µM | 
14 | CC1CN(C(c2ccncc2)c2ccc3cccnc3c2O)CC(C)O1 (stereo not shown) [Example 18, 7-[(2,6-Dimethyl-morpholin-4-yl)-pyridin-4-yl-methyl]-quinolin-8-ol] | < 50 µM | 
15 | COc1ccccc1C(c1ccc2cccnc2c1O)N1CCOCC1 (stereo not shown) [Example 14, 7-[(2-Methoxy-phenyl)-morpholin-4-yl-methyl]-quinolin-8-ol] | < 50 µM | 
16 | CC1CN(C(c2ccccn2)c2cc(Cl)c3cccnc3c2O)CC(C)O1 (stereo not shown) [Example 33] | < 50 µM | 
17 | Oc1c(C(c2ccccn2)N2CCOCC2)ccc2cccnc12 (stereo not shown) [Example 1, 7-(Morpholin-4-yl-pyridin-2-yl-methyl)-quinolin-8-ol] | < 50 µM | >50%
18 | CN(Cc1ccccc1)C(c1ccncc1)c1ccc2cccnc2c1O (stereo not shown) [Example 19, 7-[(Benzyl-methyl-amino)-pyridin-4-yl-methyl]-quinolin-8-ol] | < 50 µM | 
19 | Oc1c(C(c2ccccn2)N2CCN(c3ccccn3)CC2)ccc2cccnc12 (stereo not shown) [Example 37, 7-[Pyridin-2-yl-(4-pyridin-2-yl-piperazin-1-yl)-methyl]-quinolin-8-ol] | < 50 µM | 

Row | SMILES | IC50 | I [%] (median inhibition [%] at 10 μM substance conc.)
20 | Oc1c(C(c2ccccn2)N2CCC(Cc3ccccc3)CC2)ccc2cccnc12 (stereo not shown) [Example 7, 7-[(4-Benzyl-piperidin-1-yl)-pyridin-2-yl-methyl]-quinolin-8-ol] | < 50 µM | 
21 | CN1CCN(C(c2ccccn2)c2ccc3cccnc3c2O)CC1 (stereo not shown) [Example 35, 7-[(4-Methyl-piperazin-1-yl)-pyridin-2-yl-methyl]-quinolin-8-ol] | < 50 µM | 
22 | Oc1c(C(Nc2ccccn2)c2cccnc2)cc(Cl)c2cccnc12 (stereo not shown) [Example 6, 5-Chloro-7-[pyridin-3-yl-(pyridin-2-ylamino)-methyl]-quinolin-8-ol] | < 50 µM | <50%
23 | Oc1c(C(c2ccccn2)N2CCN(Cc3ccccc3)CC2)ccc2cccnc12 (stereo not shown) [Example 34, 7-[(4-Benzyl-piperazin-1-yl)-pyridin-2-yl-methyl]quinolin-8-ol] | < 50 µM | 
24 | CC1CN(C(c2ccc(F)cc2)c2ccc3cccnc3c2O)CC(C)O1 (stereo not shown) [Example 20, 7-[(2,6-Dimethyl-morpholin-4-yl)-(4-fluoro-phenyl)-methyl]-quinolin-8-ol] | < 50 µM | 
25 | OCCN1CCN(C(c2ccccn2)c2ccc3cccnc3c2O)CC1 (stereo not shown) [Example 8] | < 50 µM | 
26 | Oc1c(C(c2ccccc2Cl)N2CCOCC2)ccc2cccnc12 (stereo not shown) [Example 13, 7-[(2-Chloro-phenyl)-morpholin-4-yl-methyl]-quinolin-8-ol] | < 50 µM | 
27 | COc1ccc(C(c2ccc3cccnc3c2O)N2CCOCC2)cc1 (stereo not shown) [Example 41, 7-[(4-Methoxy-phenyl)-morpholin-4-yl-methyl]-quinolin-8-ol] | < 50 µM | 
28 | Cc1ccc(C(c2ccc3cccnc3c2O)N2CCOCC2)cc1 (stereo not shown) [Example 9, 7-(Morpholin-4-yl-p-tolyl-methyl)-quinolin-8-ol] | < 50 µM | 
29 | Oc1c(C(c2ccccn2)N2CCCCC2)cc(Cl)c2cccnc12 (stereo not shown) [Example 32, 5-Chloro-7-(piperidin-1-yl-pyridin-2-yl-methyl)-quinolin-8-ol] | < 50 µM | 
30 | Cc1ccccc1C(c1ccc2cccnc2c1O)N1CCOCC1 (stereo not shown) [Example 12, 7-(Morpholin-4-yl-o-tolyl-methyl)-quinolin-8-ol] | < 50 µM | 
31 | COc1cc(C(=O)Oc2c(CN3CCOCC3)cc(Cl)c3cccnc23)cc(OC)c1OC [Example 4, 3,4,5-Trimethoxy-benzoic acid 5-chloro-7-morpholin-4-ylmethyl-quinolin-8-yl ester] | < 50 µM | <50%
32 | COc1ccc(C(c2ccc3cccnc3c2O)N2CCOCC2)cn1 (stereo not shown) [Example 11, 7-[(6-Methoxy-pyridin-3-yl)-morpholin-4-yl-methyl]-quinolin-8-ol] | < 50 µM | 
33 | Oc1c(CN2CCOCC2)cc(CN2CCOCC2)c2cccnc12 [Example 38, 5,7-Bis-morpholin-4-ylmethyl-quinolin-8-ol] | > 100 µM | 
34 | Oc1c(CN2CCOCC2)ccc2cccnc12 [Example 22, 7-Morpholin-4-yl-methyl-quinolin-8-ol] | < 50 µM | 
35 | Oc1c(CN2CCOCC2)cc(Cl)c2cccnc12 [Example 31, 5-Chloro-7-morpholin-4-ylmethyl-quinolin-8-ol] | < 50 µM | 
36 | Oc1c(C(c2ccc(Cl)cc2)N2CCOCC2)cc(Cl)c2cccnc12 (stereo not shown) [Example 2, 5-Chloro-7-[(4-chloro-phenyl)-morpholin-4-yl-methyl]-quinolin-8-ol] | < 50 µM | <50%
37 | O=C(Oc1c(CN2CCOCC2)cc(Cl)c2cccnc12)c1ccccc1 [Example 5, Benzoic acid 5-chloro-7-morpholin-4-ylmethyl-quinolin-8-yl ester] | < 50 µM | <50%
